Test results reported in article PMC10663540, “Structure-based discovery of dual pathway inhibitors for SARS-CoV-2 entry” (Nature Communications, 2023).
Several values for one entry are separate records, joined by “and”; a condition that tells them apart may be missing. Equal entries are not always repeated. Where two headings read alike, the source gives them in different places.

Experiments:
TMPRSS2 [1] = molecular target: T1, TMPRSS2 (Homo sapiens, UniProt O15393); assay: biochemical; format: biochemical
Target sequence in this assay (O15393 256-492): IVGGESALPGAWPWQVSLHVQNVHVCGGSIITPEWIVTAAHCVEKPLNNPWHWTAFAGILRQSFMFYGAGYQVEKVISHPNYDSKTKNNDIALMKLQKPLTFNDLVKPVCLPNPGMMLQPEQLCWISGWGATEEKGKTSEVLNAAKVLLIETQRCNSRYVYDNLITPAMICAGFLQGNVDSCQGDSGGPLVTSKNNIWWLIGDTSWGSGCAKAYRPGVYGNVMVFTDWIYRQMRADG
Target sequence in this assay (O15393 other isoform, or with tags, fused parts or gaps): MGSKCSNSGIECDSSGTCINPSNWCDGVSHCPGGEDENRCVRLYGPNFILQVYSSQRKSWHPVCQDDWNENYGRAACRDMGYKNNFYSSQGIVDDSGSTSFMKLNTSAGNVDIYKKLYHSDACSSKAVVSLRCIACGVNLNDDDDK

SARS-CoV-2 = format: cell-based; conditions: UK-371804 1.1 μM; Supplementary Fig. 7c
Calu-3 cells = conditions: rep1-rep3
in vitro = conditions: human
TMPRSS2 [2] = molecular target: T1, TMPRSS2
Target sequence in this assay (O15393 with tags, fused parts or gaps): as the sequence (O15393 other isoform, or with tags, fused parts or gaps) above
Target sequence in this assay (O15393 256-492): as the sequence (O15393 256-492) above

Q: Which results are given for `CC(C)(NS(=O)(=O)c1ccc2c(Cl)cnc(N=C(N)N)c2c1)C(=O)O` [UK-371804]?
A: Inhibition: TMPRSS2 (TMPRSS2 [1]; 0.038147 nM, rep1-rep4, 3.8147e-05 µM): 0.08% and 2.54% and 1.84% and 2.81%; Inhibition: TMPRSS2 (TMPRSS2 [1]; 0.076294 nM, rep1-rep4, 7.6294e-05 µM): 0.83% and 3.15% and 2.99% and 4.15%; Inhibition: TMPRSS2 (TMPRSS2 [1]; 0.152588 nM, rep1-rep4, 0.000152588 µM): 1.86% and 5.33% and 3.17% and 6.82%; inhibition at 0.000305176 µM (TMPRSS2 [1]; 0.305176 nM, rep1-rep4): 5.7%; Inhibition: TMPRSS2 (TMPRSS2 [1]; 0.305176 nM, rep1-rep4, 0.000305176 µM): 8.86% and 5.77% and 9.17%; IC50 (TMPRSS2 [1]; 0.5 nM TMPRSS2, 10 μM substrate, mean ± SD, four replicates): 0.00459 µM; Inhibition: TMPRSS2 (TMPRSS2 [1]; 0.610352 nM, rep1-rep4, 0.000610352 µM): 13.28% and 12.75% and 14.23%; inhibition at 0.000610352 µM (TMPRSS2 [1]; 0.610352 nM, rep1-rep4, read-out: Inhibition: TMPRSS2): 10.6%; Inhibition: TMPRSS2 (TMPRSS2 [1]; 1.2207 nM, rep1-rep4, 0.0012207 µM): 21.81% and 21.57% and 22.98%; inhibition at 0.0012207 µM (TMPRSS2 [1]; 1.2207 nM, rep1-rep4, read-out: Inhibition: TMPRSS2): 19.4%; Inhibition: TMPRSS2 (TMPRSS2 [1]; 2.44141 nM, rep1-rep4, 0.00244141 µM): 37.42% and 35.32% and 36.99%; inhibition at 0.00244141 µM (TMPRSS2 [1]; 2.44141 nM, rep1-rep4, read-out: Inhibition: TMPRSS2): 34.9%; Inhibition: TMPRSS2 (TMPRSS2 [1]; 4.88281 nM, rep1-rep4, 0.00488281 µM): 52.70% and 52.38% and 53.49%; inhibition at 0.00488281 µM (TMPRSS2 [1]; 4.88281 nM, rep1-rep4, read-out: Inhibition: TMPRSS2): 50.8%; Inhibition: TMPRSS2 (TMPRSS2 [1]; 9.76562 nM, rep1-rep4, 0.00976562 µM): 69.20% and 69.17%; inhibition at 0.00976562 µM (TMPRSS2 [1]; 9.76562 nM, rep1-rep4, read-out: Inhibition: TMPRSS2): 68.8%; Inhibition: TMPRSS2 (TMPRSS2 [1]; 19.5312 nM, rep1-rep4, 0.0195312 µM): 82.58% and 82.53% and 82.55%; inhibition at 0.0195312 µM (TMPRSS2 [1]; 19.5312 nM, rep1-rep4, read-out: Inhibition: TMPRSS2): 82.4%; Inhibition: TMPRSS2 (TMPRSS2 [1]; 39.0625 nM, rep1-rep4, 0.0390625 µM): 90.09% and 90.26% and 90.84%; inhibition at 0.0390625 µM (TMPRSS2 [1]; 39.0625 nM, rep1-rep4, read-out: Inhibition: TMPRSS2): 90.6%; Inhibition: TMPRSS2 (TMPRSS2 [1]; 78.125 nM, rep1-rep4, 0.078125 µM): 94.96% and 95.13% and 95.23%; inhibition at 0.078125 µM (TMPRSS2 [1]; 78.125 nM, rep1-rep4, read-out: Inhibition: TMPRSS2): 95.3%; Inhibition: TMPRSS2 (TMPRSS2 [1]; 156.25 nM, rep1-rep4, 0.15625 µM): 97.46% and 97.80% and 98.15%; inhibition at 0.15625 µM (TMPRSS2 [1]; 156.25 nM, rep1-rep4, read-out: Inhibition: TMPRSS2): 97.9%; Inhibition: TMPRSS2 (TMPRSS2 [1]; 312.5 nM, rep1-rep4, 0.3125 µM): 98.77% and 99.07% and 99.48%; inhibition at 0.3125 µM (TMPRSS2 [1]; 312.5 nM, rep1-rep4, read-out: Inhibition: TMPRSS2): 99.1%; Inhibition: TMPRSS2 (TMPRSS2 [1]; 625 nM, rep1-rep4, 0.625 µM): 100.11% and 99.99% and 100.09%; inhibition at 0.625 µM (TMPRSS2 [1]; 625 nM, rep1-rep4, read-out: Inhibition: TMPRSS2): 100%; Inhibition: TMPRSS2 (TMPRSS2 [1]; 1250 nM, rep1-rep4, 1.25 µM): 100.27% and 100.14% and 100.40%; inhibition at 1.25 µM (TMPRSS2 [1]; 1250 nM, rep1-rep4, read-out: Inhibition: TMPRSS2): 101%; Inhibition: TMPRSS2 (TMPRSS2 [1]; 2500 nM, rep1-rep4, 2.5 µM): 100.86% and 100.80% and 100.93%; inhibition at 2.5 µM (TMPRSS2 [1]; 2500 nM, rep1-rep4, read-out: Inhibition: TMPRSS2): 101%; Inhibition: TMPRSS2 (TMPRSS2 [1]; 5000 nM, rep1-rep4, 5 µM): 102.04% and 102.07% and 102.13%; inhibition at 5 µM (TMPRSS2 [1]; 5000 nM, rep1-rep4, read-out: Inhibition: TMPRSS2): 101%; Virus titer (SARS-CoV-2): 31700 TCID50/ml and 20000 TCID50/ml; Cytotoxicity (Calu-3 cells; 0.0128 μM): 4.90% and 4.97% and 4.91%; Cytotoxicity (Calu-3 cells; 0.064 μM): 5.03% and 5.08% and 5.05%; Cytotoxicity (Calu-3 cells; 8 μM): 8.30% and 8.32% and 8.28%; Cytotoxicity (Calu-3 cells; 40 μM): 11.32% and 11.36% and 11.39%; Cytotoxicity (Calu-3 cells; 200 μM): 60.70% and 60.73% and 60.71%; Cytotoxicity (Calu-3 cells; 1000 μM): 98.32% and 98.37% and 98.33%; CC50 (in vitro): 172 µM

Q: For `O=C(O)CN(CCN(CC(=O)O)CC(=O)O)CC(=O)O` [EDTA], which “Tm of TMPRSS2” value (TMPRSS2 [2]) is on record?
A: The value was 51.7 °C and 51.6 °C.
